Data reported in the CheMixHub viscosity set.

Assay: xn = mol fraction of the nth substance listed

CC(=O)OC1CCCCC1 + CCCCCCCCCCO
viscosity [mPa·s], 101 kPa
Settings | 300 K | 310 K | 320 K
x2 = 0.0746 | 2.01 | 1.65 | 1.38
x2 = 0.1275 | 2.11 | 1.72 | 1.43
x2 = 0.184 | 2.26 | 1.82 | 1.51
x2 = 0.2015 | 2.3 | 1.86 | 1.55
x2 = 0.2425 | 2.42 | 1.95 | 1.6
x2 = 0.2741 | 2.54 | 2.03 | 1.66
x2 = 0.4169 | 3.15 | 2.47 | 1.98
x2 = 0.4886 | 3.61 | 2.81 | 2.23
x2 = 0.6055 | 4.41 | 3.35 | 2.62
x2 = 0.6993 | 5.27 | 3.95 | 3.04
x2 = 0.8435 | 7.56 | 5.49 | 4.1
x2 = 0.8806 | 8.17 | 5.85 | 4.37

CC12CC3CC(C)(C1)CC(C)(C3)C2 + CCCCCCCCO
viscosity [mPa·s], 100 kPa
Settings | x1 = 0.1004 | x1 = 0.2017 | x1 = 0.3008 | x1 = 0.3998 | x1 = 0.5015 | x1 = 0.5993 | x1 = 0.7 | x1 = 0.7997 | x1 = 0.9005
293.15 K | 7.78 | 6.71 | 5.79 | 5 | 4.3 | 3.75 | 3.3 | 2.98 | 2.76
298.15 K | 6.54 | 5.65 | 4.9 | 4.25 | 3.71 | 3.28 | 2.93 | 2.66 | 2.47
303.15 K | 5.53 | 4.81 | 4.2 | 3.68 | 3.24 | 2.88 | 2.59 | 2.37 | 2.21
308.15 K | 4.72 | 4.14 | 3.64 | 3.22 | 2.85 | 2.55 | 2.31 | 2.13 | 2
313.15 K | 4.03 | 3.57 | 3.18 | 2.83 | 2.53 | 2.28 | 2.08 | 1.93 | 1.82
318.15 K | 3.49 | 3.12 | 2.79 | 2.5 | 2.24 | 2.03 | 1.86 | 1.73 | 1.65
323.15 K | 3.03 | 2.72 | 2.45 | 2.22 | 2 | 1.83 | 1.69 | 1.58 | 1.51

ClC(Cl)=C(Cl)Cl + CCCCCCCO
303.15 K, 101 kPa
Settings | viscosity [mPa·s]
x2 = 0.132 | 1.08
x2 = 0.2375 | 1.267
x2 = 0.3539 | 1.511
x2 = 0.4634 | 1.807
x2 = 0.5262 | 2.016
x2 = 0.5927 | 2.259
x2 = 0.6534 | 2.548
x2 = 0.7637 | 3.149
x2 = 0.8512 | 3.725
x2 = 0.9246 | 4.255

CCCCCCCCCCCCCC + CCCCCO
viscosity [mPa·s], 101.33 kPa
Settings | x1 = 0.0999 | x1 = 0.2002 | x1 = 0.3001 | x1 = 0.3987 | x1 = 0.5009 | x1 = 0.6004 | x1 = 0.6996 | x1 = 0.8014 | x1 = 0.9002
293.15 K | 3.262 | 2.941 | 2.698 | 2.52 | 2.396 | 2.31 | 2.26 | 2.234 | 2.243
303.15 K | 2.499 | 2.274 | 2.103 | 1.982 | 1.896 | 1.845 | 1.82 | 1.817 | 1.829
313.15 K | 1.963 | 1.797 | 1.674 | 1.588 | 1.531 | 1.5 | 1.491 | 1.501 | 1.519
323.15 K | 1.556 | 1.441 | 1.353 | 1.297 | 1.259 | 1.241 | 1.246 | 1.262 | 1.285
